From the kinase profiling compilation of Christmann-Franck et al. (2016)

Assays:
Assay in all cases: radiometric filter-binding kinase assay
[1] = biological target: ABL1 (human) (UniProt P00519); conditions: compound 100.0 µM; ATP 5 µM
[2] = biological target: MAPK13 (human) (UniProt O15264); conditions: compound 100.0 µM; ATP 5 µM
[3] = system: ROCK2 (rat); conditions: compound 100.0 µM; ATP 20 µM; accession and sequence are those of the human protein
[4] = biological target: DYRK3 (human) (UniProt O43781); conditions: compound 100.0 µM; ATP 5 µM
[5] = biological target: MELK (human) (UniProt Q14680); conditions: compound 100.0 µM; ATP 50 µM
[6] = biological target: TEK (human) (UniProt Q02763); conditions: compound 100.0 µM; ATP 20 µM
[7] = biological target: PIM3 (human) (UniProt Q86V86); conditions: compound 100.0 µM; ATP 20 µM
[8] = biological target: AURKA (human) (UniProt O14965); conditions: compound 100.0 µM; ATP 5 µM
[9] = biological target: MINK1 (human) (UniProt Q8N4C8); conditions: compound 100.0 µM; ATP 50 µM
[10] = biological target: MYLK (human) (UniProt Q15746); conditions: compound 100.0 µM; ATP 50 µM
[11] = biological target: MARK1 (human) (UniProt Q9P0L2); conditions: compound 100.0 µM; ATP 20 µM
[12] = biological target: PAK6 (human) (UniProt Q9NQU5); conditions: compound 100.0 µM; ATP 20 µM
[13] = system: RPS6KB1 (human), P23443 [T412E]; conditions: compound 100.0 µM; ATP 20 µM
[14] = biological target: STK16 (human) (UniProt O75716); conditions: compound 100.0 µM; ATP 50 µM
[15] = biological target: EPHA4 (human) (UniProt P54764); conditions: compound 100.0 µM; ATP 50 µM
[16] = biological target: MAPK8 (human) (UniProt P45983); conditions: compound 100.0 µM; ATP 20 µM
[17] = biological target: MAPKAPK3 (human) (UniProt Q16644); conditions: compound 100.0 µM; ATP 20 µM
[18] = biological target: PRKCA (human) (UniProt P17252); conditions: compound 100.0 µM; ATP 20 µM
[19] = biological target: RPS6KA1 KD1 KD2 (human) (UniProt Q15418); conditions: compound 100.0 µM; ATP 50 µM
[20] = biological target: STK33 (human) (UniProt Q9BYT3); conditions: compound 100.0 µM; ATP 50 µM
[21] = biological target: PIM2 (human) (UniProt Q9P1W9); conditions: compound 100.0 µM; ATP 5 µM
[22] = biological target: ERBB4 (human) (UniProt Q15303); conditions: compound 100.0 µM; ATP 5 µM
[23] = biological target: FLT1 (human) (UniProt P17948); conditions: compound 100.0 µM; ATP 20 µM
[24] = biological target: NEK6 (human) (UniProt Q9HC98); conditions: compound 100.0 µM; ATP 50 µM
[25] = biological target: EPHB4 (human) (UniProt P54760); conditions: compound 100.0 µM; ATP 5 µM
[26] = biological target: EEF2K (human) (UniProt O00418); conditions: compound 100.0 µM; ATP 5 µM
[27] = biological target: NEK2 (human) (UniProt P51955); conditions: compound 100.0 µM; ATP 50 µM
[28] = biological target: PIM1 (human) (UniProt P11309); conditions: compound 100.0 µM; ATP 20 µM
[29] = system: AKT2 (human), P31751 [S474D]; conditions: compound 100.0 µM; ATP 50 µM
[30] = biological target: MKNK2 (human) (UniProt Q9HBH9); conditions: compound 100.0 µM; ATP 50 µM
[31] = biological target: CDK2 CCNA2 (human) (UniProt P20248+P24941); conditions: compound 100.0 µM; ATP 20 µM
[32] = biological target: PHKG1 (human) (UniProt Q16816); conditions: compound 100.0 µM; ATP 50 µM
[33] = biological target: MAPKAPK2 (human) (UniProt P49137); conditions: compound 100.0 µM; ATP 20 µM
[34] = biological target: CSNK2A1 (human) (UniProt P68400); conditions: compound 100.0 µM; ATP 5 µM
[35] = biological target: CaMK1 (human) (UniProt Q14012); conditions: compound 100.0 µM; ATP 50 µM
[36] = biological target: PTK6 (human) (UniProt Q13882); conditions: compound 100.0 µM; ATP 20 µM
[37] = biological target: BRSK2 (human) (UniProt Q8IWQ3); conditions: compound 100.0 µM; ATP 50 µM
[38] = biological target: TBK1 (human) (UniProt Q9UHD2); conditions: compound 100.0 µM; ATP 50 µM
[39] = biological target: MAP3K11 (human) (UniProt Q16584); conditions: compound 100.0 µM; ATP 20 µM
[40] = biological target: MST4 (human) (UniProt Q9P289); conditions: compound 100.0 µM; ATP 20 µM

Sequence of STK16 (human) (O75716 whole entry, looked up): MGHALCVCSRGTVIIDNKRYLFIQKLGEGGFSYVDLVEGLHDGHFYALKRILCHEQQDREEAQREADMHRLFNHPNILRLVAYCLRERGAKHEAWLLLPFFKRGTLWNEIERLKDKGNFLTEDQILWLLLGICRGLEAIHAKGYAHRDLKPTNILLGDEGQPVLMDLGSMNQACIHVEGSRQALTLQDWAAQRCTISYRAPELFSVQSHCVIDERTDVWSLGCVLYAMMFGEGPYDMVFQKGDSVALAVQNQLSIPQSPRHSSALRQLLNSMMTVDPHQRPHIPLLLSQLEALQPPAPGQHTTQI
Sequence of MAPK8 (human) (P45983 whole entry, looked up): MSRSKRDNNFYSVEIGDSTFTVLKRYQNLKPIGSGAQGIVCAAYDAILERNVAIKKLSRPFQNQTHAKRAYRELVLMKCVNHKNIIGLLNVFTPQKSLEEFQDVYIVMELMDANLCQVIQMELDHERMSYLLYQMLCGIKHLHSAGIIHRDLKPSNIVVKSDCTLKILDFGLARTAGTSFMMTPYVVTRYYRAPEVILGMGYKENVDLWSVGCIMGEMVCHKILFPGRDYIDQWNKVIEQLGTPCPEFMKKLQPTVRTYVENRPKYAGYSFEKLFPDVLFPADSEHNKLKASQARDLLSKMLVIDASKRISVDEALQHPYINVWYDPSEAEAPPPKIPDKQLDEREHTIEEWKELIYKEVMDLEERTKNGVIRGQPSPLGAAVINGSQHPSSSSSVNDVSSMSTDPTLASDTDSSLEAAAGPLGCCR
Sequence of CaMK1 (human) (Q14012 whole entry, looked up): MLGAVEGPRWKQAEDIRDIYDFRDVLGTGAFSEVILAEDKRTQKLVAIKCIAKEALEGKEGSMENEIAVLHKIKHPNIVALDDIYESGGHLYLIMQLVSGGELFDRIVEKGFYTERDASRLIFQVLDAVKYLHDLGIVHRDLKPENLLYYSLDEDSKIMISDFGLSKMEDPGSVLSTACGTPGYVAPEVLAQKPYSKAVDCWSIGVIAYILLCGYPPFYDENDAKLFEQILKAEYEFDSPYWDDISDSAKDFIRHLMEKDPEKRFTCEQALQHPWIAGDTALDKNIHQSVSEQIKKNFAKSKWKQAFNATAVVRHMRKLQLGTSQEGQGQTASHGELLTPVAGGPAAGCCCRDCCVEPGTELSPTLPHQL
Sequence of STK33 (human) (Q9BYT3 whole entry, looked up): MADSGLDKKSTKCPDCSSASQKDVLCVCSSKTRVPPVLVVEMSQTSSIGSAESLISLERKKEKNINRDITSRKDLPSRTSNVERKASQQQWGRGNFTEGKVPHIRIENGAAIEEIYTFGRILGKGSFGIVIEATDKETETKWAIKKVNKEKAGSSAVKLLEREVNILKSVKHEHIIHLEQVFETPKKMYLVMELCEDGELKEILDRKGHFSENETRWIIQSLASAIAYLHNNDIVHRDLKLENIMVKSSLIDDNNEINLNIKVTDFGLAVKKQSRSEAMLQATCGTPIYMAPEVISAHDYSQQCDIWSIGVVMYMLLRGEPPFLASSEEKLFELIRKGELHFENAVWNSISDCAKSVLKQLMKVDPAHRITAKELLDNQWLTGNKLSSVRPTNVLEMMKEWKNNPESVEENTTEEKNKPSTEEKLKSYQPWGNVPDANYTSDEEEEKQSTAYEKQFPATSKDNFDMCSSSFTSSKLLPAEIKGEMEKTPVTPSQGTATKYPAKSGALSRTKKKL
Sequence of AURKA (human) (O14965 whole entry, looked up): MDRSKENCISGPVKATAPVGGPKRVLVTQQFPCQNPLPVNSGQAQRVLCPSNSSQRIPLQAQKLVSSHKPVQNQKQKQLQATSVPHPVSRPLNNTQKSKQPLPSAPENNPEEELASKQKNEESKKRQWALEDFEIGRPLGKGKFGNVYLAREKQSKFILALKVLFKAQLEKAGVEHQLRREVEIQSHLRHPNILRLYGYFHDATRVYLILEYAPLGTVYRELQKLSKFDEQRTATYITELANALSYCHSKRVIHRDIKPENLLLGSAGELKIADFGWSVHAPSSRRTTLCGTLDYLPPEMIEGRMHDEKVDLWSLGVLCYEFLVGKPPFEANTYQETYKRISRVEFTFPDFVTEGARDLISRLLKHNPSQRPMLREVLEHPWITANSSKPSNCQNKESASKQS
Sequence of AKT2 (human), P31751 [S474D] (P31751 whole entry S474D, looked up): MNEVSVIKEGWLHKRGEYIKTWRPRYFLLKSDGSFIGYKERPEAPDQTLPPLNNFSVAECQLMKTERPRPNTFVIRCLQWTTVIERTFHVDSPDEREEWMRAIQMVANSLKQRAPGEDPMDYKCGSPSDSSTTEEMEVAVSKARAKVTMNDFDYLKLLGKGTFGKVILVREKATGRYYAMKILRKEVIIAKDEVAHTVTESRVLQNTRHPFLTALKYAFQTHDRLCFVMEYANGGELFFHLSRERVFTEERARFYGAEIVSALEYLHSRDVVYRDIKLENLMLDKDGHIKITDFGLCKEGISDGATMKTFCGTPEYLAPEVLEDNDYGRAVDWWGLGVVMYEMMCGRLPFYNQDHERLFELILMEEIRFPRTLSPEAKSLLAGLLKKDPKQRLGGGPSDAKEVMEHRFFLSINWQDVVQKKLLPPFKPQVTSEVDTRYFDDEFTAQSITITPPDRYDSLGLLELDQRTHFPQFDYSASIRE
Sequence of EPHB4 (human) (P54760 whole entry, looked up): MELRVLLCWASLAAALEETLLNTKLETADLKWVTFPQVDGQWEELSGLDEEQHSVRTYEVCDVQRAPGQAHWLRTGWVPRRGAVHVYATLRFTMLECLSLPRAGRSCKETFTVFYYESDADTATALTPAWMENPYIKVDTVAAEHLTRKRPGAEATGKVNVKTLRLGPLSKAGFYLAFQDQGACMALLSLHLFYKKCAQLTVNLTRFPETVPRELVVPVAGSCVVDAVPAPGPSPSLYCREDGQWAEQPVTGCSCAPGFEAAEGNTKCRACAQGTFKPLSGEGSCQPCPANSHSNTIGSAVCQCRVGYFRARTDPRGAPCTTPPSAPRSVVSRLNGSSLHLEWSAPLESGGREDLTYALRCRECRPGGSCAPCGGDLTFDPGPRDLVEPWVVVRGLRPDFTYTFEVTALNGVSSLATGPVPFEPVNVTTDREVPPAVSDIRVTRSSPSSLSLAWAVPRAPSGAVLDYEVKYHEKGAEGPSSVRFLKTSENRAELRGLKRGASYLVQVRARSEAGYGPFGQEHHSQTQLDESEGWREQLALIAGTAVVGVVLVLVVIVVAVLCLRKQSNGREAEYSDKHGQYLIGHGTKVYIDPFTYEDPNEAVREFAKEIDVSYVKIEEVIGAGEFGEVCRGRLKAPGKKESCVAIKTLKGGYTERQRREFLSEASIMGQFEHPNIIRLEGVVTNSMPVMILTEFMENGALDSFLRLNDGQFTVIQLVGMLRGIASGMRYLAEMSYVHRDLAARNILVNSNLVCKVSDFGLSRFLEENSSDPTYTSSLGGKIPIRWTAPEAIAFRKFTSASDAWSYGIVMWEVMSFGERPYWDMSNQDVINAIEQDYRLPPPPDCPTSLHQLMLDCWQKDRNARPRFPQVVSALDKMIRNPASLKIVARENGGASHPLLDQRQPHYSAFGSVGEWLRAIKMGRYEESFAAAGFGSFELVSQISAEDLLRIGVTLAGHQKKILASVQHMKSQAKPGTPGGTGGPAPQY
Sequence of MAP3K11 (human) (Q16584 whole entry, looked up): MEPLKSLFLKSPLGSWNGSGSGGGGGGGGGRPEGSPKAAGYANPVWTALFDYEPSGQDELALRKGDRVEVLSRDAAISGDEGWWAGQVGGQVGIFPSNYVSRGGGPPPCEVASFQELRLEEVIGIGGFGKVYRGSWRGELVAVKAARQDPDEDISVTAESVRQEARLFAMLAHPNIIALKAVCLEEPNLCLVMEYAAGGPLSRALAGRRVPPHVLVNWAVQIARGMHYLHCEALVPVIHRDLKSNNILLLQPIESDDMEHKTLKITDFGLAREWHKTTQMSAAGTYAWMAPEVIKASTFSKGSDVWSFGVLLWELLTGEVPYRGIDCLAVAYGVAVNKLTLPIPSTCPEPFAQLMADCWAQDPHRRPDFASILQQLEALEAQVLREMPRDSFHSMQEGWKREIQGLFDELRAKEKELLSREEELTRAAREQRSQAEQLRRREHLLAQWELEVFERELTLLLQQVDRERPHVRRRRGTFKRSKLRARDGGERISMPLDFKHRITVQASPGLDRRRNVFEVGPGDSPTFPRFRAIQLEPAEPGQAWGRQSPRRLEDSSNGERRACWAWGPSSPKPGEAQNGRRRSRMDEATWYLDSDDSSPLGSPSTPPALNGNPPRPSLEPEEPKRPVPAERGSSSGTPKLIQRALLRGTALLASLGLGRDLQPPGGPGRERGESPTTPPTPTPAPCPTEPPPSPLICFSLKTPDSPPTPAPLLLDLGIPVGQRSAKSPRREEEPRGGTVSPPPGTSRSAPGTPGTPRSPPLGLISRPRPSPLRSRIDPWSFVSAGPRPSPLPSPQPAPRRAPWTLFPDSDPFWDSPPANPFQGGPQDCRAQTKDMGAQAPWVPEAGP
Sequence of PHKG1 (human) (Q16816 whole entry, looked up): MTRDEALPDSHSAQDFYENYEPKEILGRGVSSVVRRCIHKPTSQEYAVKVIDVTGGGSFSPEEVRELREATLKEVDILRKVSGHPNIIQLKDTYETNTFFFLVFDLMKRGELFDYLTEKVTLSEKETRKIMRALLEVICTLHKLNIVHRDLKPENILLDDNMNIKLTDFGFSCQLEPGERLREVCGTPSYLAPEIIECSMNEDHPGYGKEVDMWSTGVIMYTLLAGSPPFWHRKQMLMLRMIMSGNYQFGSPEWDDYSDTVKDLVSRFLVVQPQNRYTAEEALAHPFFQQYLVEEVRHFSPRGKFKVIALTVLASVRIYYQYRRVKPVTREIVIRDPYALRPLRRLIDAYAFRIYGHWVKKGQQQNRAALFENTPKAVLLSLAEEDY

| SMILES | inhibition [1] | inhibition [2] | inhibition [3] | inhibition [4] | inhibition [5] | inhibition [6] | inhibition [7] | inhibition [8] | inhibition [9] | inhibition [10] | inhibition [11] | inhibition [12] | inhibition [13] | inhibition [14] | inhibition [15] | inhibition [16] | inhibition [17] | inhibition [18] | inhibition [19] | inhibition [20] | further results |
| --- | --- | --- | --- | --- | --- | --- | --- | --- | --- | --- | --- | --- | --- | --- | --- | --- | --- | --- | --- | --- | --- |
| CC1CN(c2nc3ccccn3c(=O)c2N)CC(C)O1 (stereo not given) | 2% | 0% | 17% | 49% | 7% | 5% | 1% | 2% | 2% | 0% | 26% | 4% | 0% | 6% | 16% | 14% | 70% | 15% | 0% | 8% | inhibition [21]: 19%; inhibition [22]: 28%; inhibition [23]: 54%; inhibition [24]: 0%; inhibition [25]: 12%; inhibition [26]: 35%; inhibition [27]: 0%; inhibition [28]: 7%; inhibition [29]: 24%; inhibition [30]: 0%; inhibition [31]: 8%; inhibition [32]: 3%; inhibition [33]: 0%; inhibition [34]: 97%; inhibition [35]: 35%; inhibition [36]: 21%; inhibition [37]: 32%; inhibition [38]: 0%; inhibition [39]: 0%; inhibition [40]: 2% |
| O=C(Nc1cnc2[nH]cnn2c1=O)c1ccccc1 | 3% | 0% | 0% | 1% | 0% | 0% | 0% | 0% | 0% | 0% | 0% | 0% | 0% | 10% | 11% | 0% | 0% | 0% | 15% | 0% | inhibition [21]: 0%; inhibition [22]: 21%; inhibition [23]: 0%; inhibition [24]: 0%; inhibition [25]: 6%; inhibition [26]: 6%; inhibition [27]: 0%; inhibition [28]: 0%; inhibition [29]: 15%; inhibition [30]: 10%; inhibition [31]: 0%; inhibition [32]: 28%; inhibition [33]: 17%; inhibition [34]: 0%; inhibition [35]: 6%; inhibition [36]: 19%; inhibition [37]: 22%; inhibition [38]: 24%; inhibition [39]: 0%; inhibition [40]: 0% |
| CC(=O)Nc1nc2cnc(-c3ccccc3)cn2n1 | 48% | 1% | 25% | 69% | 17% | 11% | 30% | 13% | 58% | 0% | 6% | 18% | 5% | 0% | 19% | 2% | 2% | 0% | 24% | 5% | inhibition [21]: 11%; inhibition [22]: 19%; inhibition [23]: 69%; inhibition [24]: 21%; inhibition [25]: 11%; inhibition [26]: 13%; inhibition [27]: 25%; inhibition [28]: 13%; inhibition [29]: 22%; inhibition [30]: 35%; inhibition [31]: 34%; inhibition [32]: 68%; inhibition [33]: 7%; inhibition [34]: 11%; inhibition [35]: 17%; inhibition [36]: 1%; inhibition [37]: 20%; inhibition [38]: 31%; inhibition [39]: 17%; inhibition [40]: 16% |
